Source: ChEMBL document CHEMBL5325395, “Design, synthesis and anti-ovarian cancer activities of thieno[2,3-d]pyrimidine based chimeric BRD4 inhibitor/nitric oxide-donator” (Eur J Med Chem, 2023)
Activity calls are given as the source filed them. No cut-off for these calls is given here.

Legend:
[1] = target: T1, Bromodomain-containing protein 3 (Homo sapiens, UniProt Q15059); assay: Inhibition of BRD3 bromodomain 2 (unknown origin) by Alphascreen based method
[2] = system: SK-OV-3; assay: Induction of autophagy in human SK-OV-3 cells assessed as GFP-LC3 aggregation incubated for 24 hrs by confocal fluorescence microscopy analysis; type: functional, cell-based
[3] = system: SK-OV-3; assay: Induction of autophagy in human SK-OV-3 cells assessed as reduction in LAMP1 labeled lysosomes at 2 umol/L incubated for 24 hrs by immunofluorescence analysis; type: functional, cell-based; settings: dose 2.0 µmol/L
[4] = Induction of NO release in phosphate buffer at 3 hrs by Griess reagent based spectrophotometer analysis; type: functional
[5] = system: SW626; assay: Antiproliferative activity against human SW626 cells assessed as reduction in cell viability incubated for 24 hrs by CCK8 assay; type: functional, cell-based; settings: SW626, 24 h
[6] = system: SK-OV-3; assay: Induction of apoptosis in human SK-OV-3 cells assessed as downregulation of Bcl-2 protein expression at 1 to 2 uM incubated for 24 hrs by Western blotting analysis; type: functional, cell-based; settings: dose 1-2 µM
[7] = system: SK-OV-3; assay: Induction of apoptosis in human SK-OV-3 cells assessed as upregulation of p62/SQSTM1 protein expression at 1 to 2 uM incubated for 24 hrs by Western blotting analysis; type: functional, cell-based; settings: dose 1-2 µM
[8] = system: SK-OV-3; assay: Induction of apoptosis in human SK-OV-3 cells assessed as upregulation of Beclin1 protein expression at 1 to 2 uM incubated for 24 hrs by Western blotting analysis; type: functional, cell-based; settings: dose 1-2 µM
[9] = system: OVCAR-3; assay: Antiproliferative activity against human OVCAR-3 cells assessed as reduction in cell viability incubated for 24 hrs by CCK8 assay; type: functional, cell-based; settings: OVCAR-3, 24 h
[10] = target: T1, Bromodomain-containing protein 3; assay: Inhibition of BRD3 bromodomain 1 (unknown origin) by Alphascreen based method
[11] = target: Bromodomain testis-specific protein (Homo sapiens, UniProt Q58F21); assay: Inhibition of BRDT bromodomain 1 (unknown origin) by Alphascreen based method
[12] = Induction of NO release in phosphate buffer at 0.5 hrs by Griess reagent based spectrophotometer analysis; type: functional
[13] = target: T2, Bromodomain-containing protein 2 (Homo sapiens, UniProt P25440); assay: Inhibition of BRD2 bromodomain 1 (unknown origin) by Alphascreen based method
[14] = Induction of NO release in phosphate buffer at 24 hrs by Griess reagent based spectrophotometer analysis; type: functional
[15] = target: T2, Bromodomain-containing protein 2; assay: Binding affinity to BRD2 BD1 (unknown origin) by thermal denaturation assay
[16] = system: SK-OV-3; assay: Antitumor activity against human SK-OV-3 cells xenografted in Balb/c nude mouse assessed as tumor growth inhibition at 30 mg/kg, ip administered for 19 days; type: functional, organism-based; settings: time 19.0 day
[17] = target: T3, Bromodomain-containing protein 4 (Homo sapiens, UniProt O60885); assay: Binding affinity to BRD4 BD2 (unknown origin) by thermal denaturation assay
[18] = system: SK-OV-3; assay: Induction of apoptosis in human SK-OV-3 cells assessed as upregulation of cleaved caspase 3 protein expression at 1 to 2 uM incubated for 24 hrs by Western blotting analysis; type: functional, cell-based; settings: dose 1-2 µM
[19] = Induction of NO release in phosphate buffer at 4 hrs by Griess reagent based spectrophotometer analysis; type: functional
[20] = system: SK-OV-3; assay: Induction of apoptosis in human SK-OV-3 cells assessed as necrotic cells at 2 uM incubated for 24 hrs by Annexin V and PI staining based flow cytometry analysis (reference value: 0.15 %); type: functional
[21] = target: T3, Bromodomain-containing protein 4; assay: Inhibition of BRD4 bromodomain 1 (unknown origin) by Alphascreen based method
[22] = system: ES-2; assay: Antiproliferative activity against human ES2 cells assessed as reduction in cell viability incubated for 24 hrs by CCK8 assay; type: functional, cell-based; settings: ES-2, 24 h
[23] = target: T3, Bromodomain-containing protein 4; assay: Binding affinity to BRD4 BD1 (unknown origin) by thermal denaturation assay
[24] = system: SK-OV-3; assay: Induction of apoptosis in human SK-OV-3 cells assessed as early apoptotic cells at 2 uM incubated for 24 hrs by Annexin V and PI staining based flow cytometry analysis (reference value: 0.020 %); type: functional
[25] = target: T2, Bromodomain-containing protein 2; assay: Binding affinity to BRD2 BD2 (unknown origin) by thermal denaturation assay
[26] = system: SK-OV-3; assay: Induction of apoptosis in human SK-OV-3 cells assessed as early apoptotic cells at 1 uM incubated for 24 hrs by Annexin V and PI staining based flow cytometry analysis (reference value: 0.020 %); type: functional
[27] = system: A2780; assay: Antiproliferative activity against human A2780 cells assessed as reduction in cell viability incubated for 24 hrs by CCK8 assay; type: functional, cell-based; settings: A2780, 24 h
[28] = system: SK-OV-3; assay: Induction of apoptosis in human SK-OV-3 cells assessed as upregulation of LC3II/I protein expression at 1 to 2 uM incubated for 24 hrs by Western blotting analysis; type: functional, cell-based; settings: dose 1-2 µM
[29] = system: SK-OV-3; assay: Antitumor activity against human SK-OV-3 cells xenografted in BALB/c nude mouse assessed as increase in tumor cell apoptosis at 30 mg/kg, ip administered for 19 days by TUNEL staining based analysis; type: functional, organism-based; settings: time 19.0 day
[30] = system: SK-OV-3; assay: Induction of autophagy in human SK-OV-3 cells assessed as appearance of autophagic vacuoles incubated for 24 hrs by transmission electron microscopy analysis; type: functional, cell-based
[31] = system: SK-OV-3; assay: Induction of apoptosis in human SK-OV-3 cells assessed as necrotic cells at 1 uM incubated for 24 hrs by Annexin V and PI staining based flow cytometry analysis (reference value: 0.15 %); type: functional
[32] = system: SK-OV-3; assay: Induction of apoptosis in human SK-OV-3 cells assessed as upregulation of cytochrome-C protein expression at 1 to 2 uM incubated for 24 hrs by Western blotting analysis; type: functional, cell-based; settings: dose 1-2 µM
[33] = system: SK-OV-3; assay: Induction of autophagy in human SK-OV-3 cells assessed as GFP-LC3 aggregation incubated for 24 hrs by transmission electron microscopy analysis; type: functional, cell-based
[34] = target: T3, Bromodomain-containing protein 4; assay: Inhibition of BRD4 in human SK-OV-3 cells assessed as reduction in BRD4 protein expression by Western blot analysis; type: cell-based
[35] = system: SK-OV-3; assay: Induction of apoptosis in human SK-OV-3 cells assessed as late apoptotic cells at 2 uM incubated for 24 hrs by Annexin V and PI staining based flow cytometry analysis (reference value: 0 %); type: functional
[36] = target: T3, Bromodomain-containing protein 4; assay: Inhibition of BRD4 in human SK-OV-3 cells assessed as reduction in c-Myc protein expression by Western blot analysis; type: cell-based
[37] = Induction of NO release in phosphate buffer at 1 hr by Griess reagent based spectrophotometer analysis; type: functional
[38] = system: SK-OV-3; assay: Induction of autophagy in human SK-OV-3 cells assessed as appearance of autophagic vacuoles incubated for 24 hrs by confocal fluorescence microscopy analysis; type: functional, cell-based
[39] = system: SK-OV-3; assay: Induction of apoptosis in human SK-OV-3 cells assessed as viable cells at 1 uM incubated for 24 hrs by Annexin V and PI staining based flow cytometry analysis (reference value: 99.8 %); type: functional; settings: read-out: Activity
[40] = target: T2, Bromodomain-containing protein 2; assay: Inhibition of BRD2 bromodomain 2 (unknown origin) by Alphascreen based method
[41] = system: SK-OV-3; assay: Induction of autophagy in human SK-OV-3 cells assessed as increase in autophagosomes at 2 umol/L incubated for 24 hrs by immunofluorescence analysis; type: functional, cell-based; settings: dose 2.0 µmol/L
[42] = Induction of NO release in phosphate buffer at 2 hrs by Griess reagent based spectrophotometer analysis; type: functional
[43] = system: SK-OV-3; assay: Antitumor activity against human SK-OV-3 cells xenografted in BALB/c nude mouse assessed as reduction in Ki-67 expression at 30 mg/kg, ip administered for 19 days by immunohistochemical analysis; type: functional, organism-based; settings: time 19.0 day
[44] = system: SK-OV-3; assay: Induction of autophagy in human SK-OV-3 cells assessed as reduction in GFP-LC3 labeled lysosomes at 2 umol/L incubated for 24 hrs by immunofluorescence analysis; type: functional, cell-based; settings: dose 2.0 µmol/L
[45] = system: Mus musculus; assay: In vivo inhibition of BRD4 in BALB/c nude mouse xenografted with human SK-OV-3 cells assessed as reduction in c-Myc expression at 30 mg/kg, ip administered for 19 days by immunohistochemical analysis; type: functional, organism-based; settings: time 19.0 day
[46] = target: T3, Bromodomain-containing protein 4; assay: Inhibition of BRD4 (unknown origin)
[47] = system: SK-OV-3; assay: Induction of apoptosis in human SK-OV-3 cells assessed as viable cells at 2 uM incubated for 24 hrs by Annexin V and PI staining based flow cytometry analysis (reference value: 99.8 %); type: functional; settings: read-out: Activity
[48] = Toxicity in BALB/c mouse xenografted with human SK-OV-3 cells assessed as change in body weight at 30 mg/kg, ip administered for 19 days; type: organism-based; settings: in vivo, 456 h, time 19 day
[49] = system: SK-OV-3; assay: Induction of apoptosis in human SK-OV-3 cells assessed as late apoptotic cells at 1 uM incubated for 24 hrs by Annexin V and PI staining based flow cytometry analysis (reference value: 0 %); type: functional
[50] = target: T3, Bromodomain-containing protein 4; assay: Inhibition of BRD4 bromodomain 2 (unknown origin) by Alphascreen based method
[51] = system: SK-OV-3; assay: Antiproliferative activity against human SK-OV-3 cells assessed as reduction in cell viability incubated for 24 hrs by CCK8 assay; type: functional, cell-based; settings: SK-OV-3, 24 h
[52] = Induction of NO release in phosphate buffer at 6 hrs by Griess reagent based spectrophotometer analysis; type: functional

T2 sequence (P25440 whole entry): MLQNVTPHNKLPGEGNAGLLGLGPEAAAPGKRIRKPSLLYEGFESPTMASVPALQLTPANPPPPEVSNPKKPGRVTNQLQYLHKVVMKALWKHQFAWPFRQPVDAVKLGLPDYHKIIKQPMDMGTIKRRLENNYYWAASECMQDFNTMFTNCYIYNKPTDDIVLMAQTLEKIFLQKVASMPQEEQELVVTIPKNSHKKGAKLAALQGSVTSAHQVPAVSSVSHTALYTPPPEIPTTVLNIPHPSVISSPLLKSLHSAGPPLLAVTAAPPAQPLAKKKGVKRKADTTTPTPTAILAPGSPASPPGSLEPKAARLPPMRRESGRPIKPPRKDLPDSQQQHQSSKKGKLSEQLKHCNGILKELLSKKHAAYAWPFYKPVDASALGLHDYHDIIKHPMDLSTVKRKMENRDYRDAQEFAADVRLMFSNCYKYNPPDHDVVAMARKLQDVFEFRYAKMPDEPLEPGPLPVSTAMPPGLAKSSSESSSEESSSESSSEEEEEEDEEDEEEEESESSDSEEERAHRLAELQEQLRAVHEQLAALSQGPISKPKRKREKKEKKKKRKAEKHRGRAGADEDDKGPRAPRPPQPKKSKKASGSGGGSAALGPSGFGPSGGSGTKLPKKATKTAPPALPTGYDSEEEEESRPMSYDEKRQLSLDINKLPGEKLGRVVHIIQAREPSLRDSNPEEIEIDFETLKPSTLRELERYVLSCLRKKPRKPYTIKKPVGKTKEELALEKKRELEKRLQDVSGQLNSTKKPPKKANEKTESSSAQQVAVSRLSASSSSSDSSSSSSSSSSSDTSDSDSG
T1 sequence (Q15059 whole entry): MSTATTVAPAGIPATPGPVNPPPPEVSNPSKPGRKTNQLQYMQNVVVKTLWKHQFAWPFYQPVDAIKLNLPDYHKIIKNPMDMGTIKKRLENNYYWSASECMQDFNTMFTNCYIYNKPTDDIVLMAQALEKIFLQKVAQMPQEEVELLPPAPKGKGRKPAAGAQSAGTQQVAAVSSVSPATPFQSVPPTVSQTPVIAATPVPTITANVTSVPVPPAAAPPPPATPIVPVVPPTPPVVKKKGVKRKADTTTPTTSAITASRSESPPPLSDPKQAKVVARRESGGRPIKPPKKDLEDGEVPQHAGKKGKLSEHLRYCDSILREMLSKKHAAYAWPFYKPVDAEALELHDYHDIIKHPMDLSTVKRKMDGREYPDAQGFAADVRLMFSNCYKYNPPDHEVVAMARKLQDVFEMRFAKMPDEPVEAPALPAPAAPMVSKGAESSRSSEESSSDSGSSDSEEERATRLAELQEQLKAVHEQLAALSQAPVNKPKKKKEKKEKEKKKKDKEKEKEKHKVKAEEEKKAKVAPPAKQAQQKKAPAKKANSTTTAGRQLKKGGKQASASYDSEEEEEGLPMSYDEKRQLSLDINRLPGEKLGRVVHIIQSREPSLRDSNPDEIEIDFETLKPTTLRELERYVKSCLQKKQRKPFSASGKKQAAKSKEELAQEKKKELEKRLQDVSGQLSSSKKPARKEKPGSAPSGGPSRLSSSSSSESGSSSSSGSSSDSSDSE

## Cc1cc(-c2nc3sc4c(c3c(=O)[nH]2)CCN(C)C4)cc(C)c1OCC(=O)OCc1c(-c2ccccc2)no[n+]1[O-]
[1]
  IC50: > 20 µM
[2]
  Activity: Active
[3]
  Activity: Active
[4]
  Activity: 0.072 µmol/L
[5]
  IC50: 8.47 µM
[6]
  Activity: Active
[7]
  Activity: Active
[8]
  Activity: Active
[9]
  IC50: 2.69 µM
[10]
  IC50: > 20 µM
[11]
  IC50: > 20 µM
[12]
  Activity: 0.061 µmol/L
[13]
  IC50: 15.9 µM
[14]
  Activity: 0.258 µmol/L
[15]
  Kd: 7.43 µM
[16]
  Activity: Active
[17]
  Kd: 0.686 µM
[18]
  Activity: Active
[19]
  Activity: 0.095 µmol/L
[20]
  Activity: 1.03%
[21]
  IC50: 0.82 µM
[22]
  IC50: 3.44 µM
[23]
  Kd: 0.419 µM
[24]
  Activity: 8.84%
[25]
  Kd: 17.5 µM
[26]
  Activity: 6.15%
[27]
  IC50: 3.44 µM
[28]
  Activity: Active
[29]
  Activity: Active
[30]
  Activity: Active
[31]
  Activity: 1.2%
[32]
  Activity: Active
[33]
  Activity: Active
[34]
  inhibition: Active
[35]
  Activity: 5.21%
[36]
  inhibition: Active
[37]
  Activity: 0.055 µmol/L
[38]
  Activity: Active
[39]
  viability at 1 µM: 88.9%
[40]
  IC50: > 20 µM
[41]
  Activity: Active
[42]
  Activity: 0.054 µmol/L
[43]
  Activity: Active
[44]
  Activity: Active
[45]
  inhibition: Active
[46]
  IC50: 0.82 µM
[47]
  viability at 2 µM: 85.1%
[48]
  Activity: Non-Toxic
[49]
  Activity: 4.5%
[50]
  IC50: 1.94 µM
[51]
  IC50: 1.38 µM
[52]
  Activity: 0.111 µmol/L
